What was measured:
[1] = target: T1, PSI core of the PSI-FCPI supercomplex (Chaetoceros neogracilis, UniProt A0A6J4B0E7+A0A6J4B109); assay: cryo-EM structure, […] Å; assay type: binding; details: two molecules bound to PsaA/B/R
T1 construct: gene psaA; native purification from thylakoids with DDM; PsaS modelled as polyalanine; with Photosystem I iron-sulfur center; Photosystem I reaction center subunit II; Photosystem I reaction center subunit IV; Photosystem I reaction center subunit III; Photosystem I reaction center subunit VIII; Photosystem I reaction center subunit IX; Photosystem I reaction center subunit XI; Photosystem I reaction center subunit XII; Photosystem I subunit PsaR; Photosystem I subunit PsaS

PsaR = target: T2, PsaR (Chaetoceros neogracilis, UniProt A0A6J4B118); assay: cryo-EM structure, […] Å; assay type: binding; details: one molecule
T2 construct: gene psa28; native, within the PSI-FCPI supercomplex; 89 residues, two transmembrane helices; next to PsaB and FCPI-8/9/10
T2 sequence (A0A6J4B118 51-139): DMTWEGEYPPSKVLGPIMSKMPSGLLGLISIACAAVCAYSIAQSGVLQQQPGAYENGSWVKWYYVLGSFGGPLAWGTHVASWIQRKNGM

T1 sequence (A0A6J4B0E7 1-733, one chain of several): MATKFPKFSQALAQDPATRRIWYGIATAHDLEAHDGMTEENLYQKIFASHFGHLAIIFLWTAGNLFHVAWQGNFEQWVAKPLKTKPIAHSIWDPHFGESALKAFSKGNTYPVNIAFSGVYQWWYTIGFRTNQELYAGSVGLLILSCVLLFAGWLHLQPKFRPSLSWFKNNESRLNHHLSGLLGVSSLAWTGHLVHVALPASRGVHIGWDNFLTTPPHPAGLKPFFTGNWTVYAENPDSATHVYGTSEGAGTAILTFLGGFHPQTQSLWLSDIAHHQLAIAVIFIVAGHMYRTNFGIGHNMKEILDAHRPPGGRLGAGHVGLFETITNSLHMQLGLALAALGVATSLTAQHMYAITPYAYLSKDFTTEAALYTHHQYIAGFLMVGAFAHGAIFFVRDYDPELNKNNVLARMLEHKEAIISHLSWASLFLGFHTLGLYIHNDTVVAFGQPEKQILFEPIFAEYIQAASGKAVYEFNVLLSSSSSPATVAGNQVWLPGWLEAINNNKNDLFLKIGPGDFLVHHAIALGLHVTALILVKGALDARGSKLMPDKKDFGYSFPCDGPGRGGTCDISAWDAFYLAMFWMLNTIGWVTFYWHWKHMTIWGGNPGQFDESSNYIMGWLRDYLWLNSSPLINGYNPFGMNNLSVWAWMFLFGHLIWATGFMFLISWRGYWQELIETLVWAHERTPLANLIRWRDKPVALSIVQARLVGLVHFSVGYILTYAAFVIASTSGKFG

cryo-EM structure, 2.38 Å (PsaR)	SMILES	cryo-EM structure, 2.38 Å ([1]; chain of each in supplement)	cryo-EM structure, 2.38 Å ([1]; one of them on PsaR)
–	CC1=C(C#C/C(C)=C/C=C/C(C)=C/C=C/C=C(C)/C=C/C=C(C)/C=C/[C@@]23O[C@]2(C)C[C@@H](O)CC3(C)C)C(C)(C)C[C@H](O)C1 [diadinoxanthin]	two Ddx and two Fx were identified in the diatom PSI core	–
binds one Chl a and one Fx	CC(=O)O[C@H]1CC(C)(C)C(=C=C/C(C)=C/C=C/C(C)=C/C=C/C=C(C)/C=C/C=C(\C)C(=O)C[C@@]23O[C@]2(C)C[C@@H](O)CC3(C)C)[C@](C)(O)C1 [fucoxanthin]	–	two Ddx and two Fx were identified in the diatom PSI core
